Where two headings read alike, the source gives them in different places. Ends that are not written are not given here.
Key:
sirtuin 6 = conditions: cited from earlier work; for sirtuin 6 expression: short-term cultures
SIRT6 = conditions: Normal Human Epidermal Keratinocytes (NHEK); cited from earlier work
[1] = system: Normal Human Epidermal Keratinocytes (NHEK); assay: Comet assay of DNA fragmentation in NHEK exposed to UVB (Test Example 1); assay type: cell-based; conditions: FIG. 1
Description: This study used control samples and three types of test samples. Control samples were neither treated with the peptide, nor exposed to UVB radiation. Type 1 samples were treated with the peptide, as described below, but not exposed to UVB radiation. Type 2 samples were not treated with the peptide, but were exposed to UVB radiation. Type 3 samples were treated with the peptide, as described below, and exposed to UVB radiation. SIRT6 activating peptide (SEQ ID No. 1) in powdered form was prepared in solution at 50 ppm.
For all test samples, Normal Human Epidermal Keratinocytes (NHEK) were seeded on Trevigen Flare™ slides at 8,000 cells/spot for DNA fragmentation analysis. Cells were incubated at 37° C., 95% humidity and 5% CO2 in cell culture media for 24 hours. Type 1 and type 3 samples were treated with the 50 ppm powdered peptide solution at 3% of the cell culture media (equivalent to 0.00015% of peptide in solution), and all samples were incubated for 48 hours. Thereafter, the cell culture media was removed from all samples and replaced with 100 μl of Dulbecco's Phosphate Buffered Saline. […]
Following the six hour incubation, the sample cells were washed with phosphate buffered saline. […] The tail moments were analyzed with the Comet Score software from TriTek, Corp (Sumerduck, Va.). […]

Gly-Ala-Gly-Val-Ser-Ala-Glu-NH2 (GAGVSAE-NH2) [SEQ ID No. 1]
sirtuin 6 expression stimulation effect, long term (sirtuin 6; long term cultures): maintained for the long term | sirtuin 6 expression (sirtuin 6; normal human fibroblasts): increase sirtuin 6 expression very significantly | sirtuin 6 expression (sirtuin 6; normal human keratinocytes): increase sirtuin 6 expression very significantly | SIRT6 expression (SIRT6): dose dependent increase in SIRT6 expression | DNA fragmentation (comet tail moment) ([1]; type 1 samples: NHEK treated with peptide (0.00015% in solution), not irradiated): comparable to the control samples | DNA fragmentation (comet tail moment) ([1]; type 3 samples: NHEK pre-treated with peptide 48 h (0.00015%), 20 mJ/cm^2 UVB, post-treated 6 h): comparable to the control samples
